The values that follow come from EP0491103B1, “Compositions for therapeutic use comprising organogermanium derivatives” (Larranaga Mendizabal, Eusebio, priority 1990, dated 1992).

The conditions of series [1]: as indicated in Miyao K. et al., DRUGS OF FUTURE 13, no. 5, 1988; cited from earlier work.
Series [2] deals with macrophages obtained from the mice peritoneum. Description: Test 2: Production of macrophages in mice (peritoneal macrophage count). Format: in vivo, BALB/C mice. The following applies: 1 ml subcutaneously every 3 days; for macrophage counts: after 30 days (10 sessions), first group, distilled water 1.0; for average macrophage counts: at 60 days (20 sessions), second group, distilled water 1.1.

In series [3] the test system is macrophages removed from the second Group mice. Description: Test 2: protein synthesis (35S-met.) and DNA synthesis (3H-Thy.) in macrophages removed from treated mice and cultured in vitro for 24 hours. Format: in vivo, BALB/C mice. The note with it: macrophages of second group mice (60 days) cultured 24 hours, water-treated mice = 100%; for relative (percentage) values of DNA synthesis: ³H-Thy.; for relative (percentage) values of protein synthesis: ³⁵S-met. On the procedure: 15 BALB/C mice (18-20 g) were divided into two groups of 5 and 10 mice. The first group was administered 1 ml of the aqueous solutions described below every 3 days for 30 days (10 sessions), subcutaneously.
The solutions applied were as follows: a) distilled water, b) sodium thiosulphate (25 g/lit), c) formic acid (0.3 g/lit), d) above described organogermanium compound solution, and e) above described organogermanium compound plus formic acid (0.3 g/lit).
Finally, the macrophages removed from the second Group mice were cultured "in vitro" for 24 hours, protein synthesis (using ³⁵S-met. as indicator) and DNA synthesis (using ³H-Thy.) determinations being made therewith.

Turning to `O=C(O)C[CH2][Ge](=[O])[O][Ge](=[O])[CH2]CC(=O)O` [Ge-132, carboxyethylgermanium sesquioxide], the solubility in water entry in series [1] is “soluble in water”.
For the molecule `O=CO` [formic acid], in series [2], the macrophage counts is recorded as 1.2 millions of microphages per millilitre and the average macrophage counts is on record as 1.2 millions of macrophages per millilitre. Besides, in series [3], the “relative (percentage) values of DNA synthesis” value is 140% and the “relative (percentage) values of protein synthesis” value came out at 115%.
With sodium thiosulphate, in series [2], the macrophage counts is reported as 0.9 millions of microphages per millilitre and the average macrophage counts is reported as 1.0 millions of macrophages per millilitre. In series [3], the “relative (percentage) values of DNA synthesis” value turned out to be 102% and the “relative (percentage) values of protein synthesis” value was found to be 98%.
